From the supplement of paper PMC10331698
± gives the standard deviation of the averaged measurements.

What was measured:
Experiment in all cases: level (log10 ratio to DMSO vehicle control); higher = higher biomarker level / cell amount than vehicle control
[1] = compound: C=C(C)C(=O)OCCC(F)(F)C(F)(F)C(F)(F)C(F)(F)C(F)(F)C(F)(F)F [6:2 Fluorotelomer methacrylate]; conditions: in DMSO
Description: (§1)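 BioMAP Diversity Plus panel of 12 human primary cell co-culture systems (3C, 4H, LPS, SAg, BT, BF4T, BE3C, CASM3C, HDF3CGF, KF3CT, MyoF, Mphg). Compounds were added 1 h before stimulation and left for 24 h (MyoF 48 h; BT 72 h for soluble read-outs or 6 d for IgG). Biomarkers were read by ELISA, cytotoxicity by SRB, PBMC viability and proliferation by Alamar Blue. Each well value was divided by the mean of 8 DMSO control wells on the same plate and log10 transformed; duplicate blinded samples were tested at 4 concentrations.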

[2] = compound: C=CC(=O)OCC(F)(F)C(F)(F)C(F)(F)COC(=O)C=C [1H,1H,5H,5H-Perfluoro-1,5-pentanediol diacrylate]; conditions: 6700 nM; in DMSO
Description: as §1

[3] = compound: COC(=O)C(F)(F)C(F)(F)OC(F)(C(F)(F)F)C(F)(F)OC(F)=C(F)F [Methyl perfluoro(3-(1-ethenyloxypropan-2-yloxy)propanoate)]; conditions: in DMSO
Description: as §1

[4] = compound: FC(F)(F)C(F)(F)C(F)(F)C(F)(F)C(F)(F)C(F)(F)C(F)(F)I [1-Iodopentadecafluoroheptane]; conditions: in DMSO
Description: as §1

[5] = compound: FC(F)(F)C(F)(F)C(F)(F)C(F)(F)C(F)(F)C(F)(F)CC1CO1 [3-(Perfluorohexyl)-1,2-epoxypropane]; conditions: in DMSO
Description: as §1

[6] = compound: FC(F)(F)C(F)(F)C(F)(F)CC1CO1 [1H,1H-Heptafluorobutyl epoxide]; conditions: in DMSO
Description: as §1

Heptafluorobutyl iodide = compound: FC(F)(F)C(F)(F)C(F)(F)CI [Heptafluorobutyl iodide]; conditions: in DMSO
Description: as §1

[7] = compound: FC(F)(F)C(F)(F)CNCC(F)(F)C(F)(F)F [Bis(1H,1H-perfluoropropyl)amine]; conditions: in DMSO
Description: as §1

Octafluoroadipamide = compound: NC(=O)C(F)(F)C(F)(F)C(F)(F)C(F)(F)C(N)=O [Octafluoroadipamide]; conditions: in DMSO
Description: as §1

Nonafluoropentanamide = compound: NC(=O)C(F)(F)C(F)(F)C(F)(F)C(F)(F)F [Nonafluoropentanamide]; conditions: in DMSO
Description: as §1

[8] = compound: NC(=O)C(F)(F)C(F)(F)C(F)(F)C(F)F; conditions: in DMSO
Description: as §1

[9] = compound: NS(=O)(=O)C(F)(F)C(F)(F)C(F)(F)C(F)(F)C(F)(F)C(F)(F)F [Perfluorohexanesulfonamide]; conditions: in DMSO
Description: as §1

[10] = compound: O=C(O)C(F)(F)C(F)(F)C(F)(F)C(F)(F)C(F)(F)C(F)(F)C(F)(F)C(F)(F)C(F)(F)C(F)F [11-H-Perfluoroundecanoic acid]; conditions: in DMSO
Description: as §1

[11] = compound: O=C(O)C=CC(F)(C(F)(F)F)C(F)(F)F [3-(Perfluoroisopropyl)-2-propenoic acid]; conditions: in DMSO
Description: as §1

[12] = compound: O=S(=O)(Cl)C(F)(F)C(F)(F)C(F)(F)C(F)(F)C(F)(F)C(F)(F)C(F)(F)C(F)(F)F [Perfluoro-1-octanesulfonyl chloride]; conditions: in DMSO
Description: as §1

[13] = compound: O=S(=O)(F)C(F)(F)C(F)(F)C(F)(F)C(F)(F)C(F)(F)C(F)(F)C(F)(F)C(F)(F)F [Perfluorooctanesulfonyl fluoride]; conditions: in DMSO
Description: as §1

[14] = compound: O=S(=O)(O)C(F)(F)C(F)(F)C(F)(F)C(F)(F)C(F)(F)C(F)(F)C(F)(F)C(F)(F)C(F)(F)C(F)(F)F [Sodium perfluorodecanesulfonate]; conditions: in DMSO
Description: as §1

[15] = compound: O=S(=O)(O)CCC(F)(F)C(F)(F)C(F)(F)C(F)(F)C(F)(F)C(F)(F)F [6:2 Fluorotelomer sulfonic acid]; conditions: in DMSO
Description: as §1

Hexafluoroamylene glycol = compound: OCC(F)(F)C(F)(F)C(F)(F)CO [Hexafluoroamylene glycol]; conditions: in DMSO
Description: as §1

## MyoF:MMP-1
[1]; 6700 nM
  level (log10): 0.043 ± 0.0042
[1]; 20000 nM
  level (log10): 0.045 ± 0.04
[1]; 60000 nM
  level (log10): 0.018 ± 0.038
[2]
  level (log10): 0.206 ± 0.0028
[3]; 6700 nM
  level (log10): 0.021 ± 0.035
[3]; 20000 nM
  level (log10): 0.111 ± 0.084
[4]; 6700 nM
  level (log10): 0.145 ± 0.045
[4]; 20000 nM
  level (log10): 0.547 ± 0.018
[5]; 6700 nM
  level (log10): -0.019 ± 0.0085
[5]; 20000 nM
  level (log10): -0.02 ± 0.017
[5]; 60000 nM
  level (log10): 0.017 ± 0.055
[6]; 6700 nM
  level (log10): 0.01 ± 0.013
[6]; 20000 nM
  level (log10): -0.013 ± 0.051
[6]; 60000 nM
  level (log10): 0.0455 ± 0.1
Heptafluorobutyl iodide; 6700 nM
  level (log10): -0.022 ± 0.0099
Heptafluorobutyl iodide; 20000 nM
  level (log10): -0.0545 ± 0.0078
Heptafluorobutyl iodide; 60000 nM
  level (log10): -0.0125 ± 0.039
[7]; 6700 nM
  level (log10): -0.0065 ± 0.011
[7]; 20000 nM
  level (log10): -0.01 ± 0.021
[7]; 60000 nM
  level (log10): 0.0245 ± 0.08
Octafluoroadipamide; 6700 nM
  level (log10): 0.0115 ± 0.036
Octafluoroadipamide; 20000 nM
  level (log10): -0.0085 ± 0.0078
Octafluoroadipamide; 60000 nM
  level (log10): 0.0325 ± 0.079
Nonafluoropentanamide; 6700 nM
  level (log10): -0.035 ± 0.037
Nonafluoropentanamide; 20000 nM
  level (log10): -0.02 ± 0.052
Nonafluoropentanamide; 60000 nM
  level (log10): -0.0055 ± 0.015
[8]; 6700 nM
  level (log10): -0.018 ± 0.038
[8]; 20000 nM
  level (log10): -0.034 ± 0.02
[8]; 60000 nM
  level (log10): 0.014 ± 0.028
[9]; 6700 nM
  level (log10): -0.0285 ± 0.016
[9]; 20000 nM
  level (log10): -0.0215 ± 0.0035
[9]; 60000 nM
  level (log10): 0.0495 ± 0.025
[10]; 6700 nM
  level (log10): -0.076 ± 0.021
[10]; 20000 nM
  level (log10): -0.027 ± 0.04
[11]; 6700 nM
  level (log10): -0.0205 ± 0.021
[11]; 20000 nM
  level (log10): -0.031 ± 0.0014
[11]; 60000 nM
  level (log10): 0.006 ± 0.068
[12]; 6700 nM
  level (log10): -0.013 ± 0.017
[12]; 20000 nM
  level (log10): -0.0095 ± 0.0092
[12]; 60000 nM
  level (log10): 0.0705 ± 0.061
[13]; 6700 nM
  level (log10): -0.0275 ± 0.013
[13]; 20000 nM
  level (log10): -0.011 ± 0.0085
[13]; 60000 nM
  level (log10): -0.007 ± 0.047
[14]; 1500 nM
  level (log10): 0.038 ± 0.1
[14]; 4400 nM
  level (log10): -0.022 ± 0.055
[14]; 13000 nM
  level (log10): -0.012 ± 0.02
[14]; 40000 nM
  level (log10): 0.0165 ± 0.064
[15]; 6700 nM
  level (log10): -0.018 ± 0.021
[15]; 20000 nM
  level (log10): -0.058 ± 0.0042
[15]; 60000 nM
  level (log10): -0.0145 ± 0.047
Hexafluoroamylene glycol; 6700 nM
  level (log10): -0.0245 ± 0.011
Hexafluoroamylene glycol; 20000 nM
  level (log10): -0.0525 ± 0.019
Hexafluoroamylene glycol; 60000 nM
  level (log10): -0.0115 ± 0.0092

## MyoF:TIMP-1
[1]; 6700 nM
  level (log10): -0.036 ± 0.062
[1]; 20000 nM
  level (log10): -0.0135 ± 0.066
[1]; 60000 nM
  level (log10): -0.017 ± 0.041
[2]
  level (log10): -0.002 ± 0.0014
[3]; 6700 nM
  level (log10): 0.018 ± 0.011
[3]; 20000 nM
  level (log10): 0.0085 ± 0.039
[4]; 6700 nM
  level (log10): 0.049 ± 0.0057
[4]; 20000 nM
  level (log10): -0.0605 ± 0.0092
[5]; 6700 nM
  level (log10): -0.0295 ± 0.046
[5]; 20000 nM
  level (log10): -0.028 ± 0.027
[5]; 60000 nM
  level (log10): 0.033 ± 0.03
[6]; 6700 nM
  level (log10): -0.025 ± 0.018
[6]; 20000 nM
  level (log10): -0.023 ± 0.035
[6]; 60000 nM
  level (log10): -0.0125 ± 0.015
Heptafluorobutyl iodide; 6700 nM
  level (log10): -0.059 ± 0.088
Heptafluorobutyl iodide; 20000 nM
  level (log10): -0.068 ± 0.068
Heptafluorobutyl iodide; 60000 nM
  level (log10): -0.0755 ± 0.063
[7]; 6700 nM
  level (log10): -0.0225 ± 0.039
[7]; 20000 nM
  level (log10): 0.0005 ± 0.067
[7]; 60000 nM
  level (log10): -0.0035 ± 0.0064
Octafluoroadipamide; 6700 nM
  level (log10): -0.0325 ± 0.023
Octafluoroadipamide; 20000 nM
  level (log10): 0.004 ± 0.033
Octafluoroadipamide; 60000 nM
  level (log10): 0.021 ± 0.021
Nonafluoropentanamide; 6700 nM
  level (log10): -0.019 ± 0.0057
Nonafluoropentanamide; 20000 nM
  level (log10): 0.01 ± 0.035
Nonafluoropentanamide; 60000 nM
  level (log10): 0.001 ± 0.0085
[8]; 6700 nM
  level (log10): -0.031 ± 0.011
[8]; 20000 nM
  level (log10): -0.024 ± 0.023
[8]; 60000 nM
  level (log10): -0.0505 ± 0.00071
[9]; 6700 nM
  level (log10): 0.019 ± 0.037
[9]; 20000 nM
  level (log10): 0.017 ± 0.045
[9]; 60000 nM
  level (log10): 0.021 ± 0.051
[10]; 6700 nM
  level (log10): 0.0255 ± 0.029
[10]; 20000 nM
  level (log10): 0.063 ± 0.0057
[11]; 6700 nM
  level (log10): -0.0285 ± 0.00071
[11]; 20000 nM
  level (log10): -0.0085 ± 0.013
[11]; 60000 nM
  level (log10): 0.0535 ± 0.037
[12]; 6700 nM
  level (log10): -0.009 ± 0.044
[12]; 20000 nM
  level (log10): 0.0035 ± 0.043
[12]; 60000 nM
  level (log10): 0.148 ± 0.031
[13]; 6700 nM
  level (log10): 0.006 ± 0.0099
[13]; 20000 nM
  level (log10): 0.0035 ± 0.016
[13]; 60000 nM
  level (log10): 0.004 ± 0.0014
[14]; 1500 nM
  level (log10): -0.037 ± 0.014
[14]; 4400 nM
  level (log10): -0.0445 ± 0.016
[14]; 13000 nM
  level (log10): -0.0415 ± 0.04
[14]; 40000 nM
  level (log10): -0.0725 ± 0.044
[15]; 6700 nM
  level (log10): -0.032 ± 0.052
[15]; 20000 nM
  level (log10): 0.031 ± 0.042
[15]; 60000 nM
  level (log10): 0.097 ± 0.011
Hexafluoroamylene glycol; 6700 nM
  level (log10): -0.041 ± 0.05
Hexafluoroamylene glycol; 20000 nM
  level (log10): -0.0385 ± 0.06
Hexafluoroamylene glycol; 60000 nM
  level (log10): -0.039 ± 0.065
